# Experimental data reported in patent US8987193B2, “Nisin derivatives and the use thereof” (University College Cork—National University of Ireland, Cork, priority 2008, dated 2015).
# Ends that are not written are not given here.
# Experiments:
# Assay in all cases: Deferred antagonism assay
# [1] = tested on: Staph. aureus ST528 (MRSA); format: cell-based; conditions: producing strain, diameter of zone minus diameter of bacterial growth (5 mm), average of duplicates
# Summary of the method: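 Producer strains replicated on GM17 agar, grown overnight, then overlaid with soft agar (0.75% w/v) seeded with indicator strain. Zone size = clearing diameter minus 5 mm growth diameter, relative to NZ9800 pCI372nisA control; mean of duplicates.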
# [2] = tested on: Strep. agalactiae ATCC13813; format: cell-based; conditions: producing strain, diameter of zone minus 5 mm, average of duplicates
# L. monocytogenes CBC1 = format: cell-based, Listeria monocytogenes; design: key: + = Enhanced bioactivity relative to control; − = Bioactivity equal to or less than control; NA = no activity evident; conditions: producing strain; L. mono CBC1
# Summary of the method: (§1)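 Well-diffusion testing of purified nisin variants in 0.005% acetic acid, serially diluted, 37° C overnight; AU/ml = reciprocal of last dilution with definite zone × 20. Deferred antagonism: overnight GM17 colonies overlaid with seeded soft agar (0.75%); zone = clearing diameter minus 5 mm.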
# L. monocytogenes CBC2 = format: cell-based, Listeria monocytogenes; design: key: + = Enhanced bioactivity relative to control; − = Bioactivity equal to or less than control; NA = no activity evident; conditions: producing strain; L. mono CBC2
# Summary of the method: as §1
# L. monocytogenes CBC3 = format: cell-based, Listeria monocytogenes; design: key: + = Enhanced bioactivity relative to control; − = Bioactivity equal to or less than control; NA = no activity evident; conditions: producing strain; L. mono CBC3
# Summary of the method: as §1
Substance,zone size relative to that of the NZ9800 pCI372nisA control [1] [%],zone size relative to that of the NZ9800 pCI372nisA control [2] [%],Bioactivity relative to control (L. monocytogenes CBC1),Bioactivity relative to control (L. monocytogenes CBC2),Bioactivity relative to control (L. monocytogenes CBC3)
"NisinA M21S (ITSISLCTPGCKTGALMGCNSKTATCHCSIHVSK; not fully specified; also: lantibiotic nisin: dehydrated residues and thioether rings not placed; UniProt P13068 24-57, looked up, variant M21S) [nisin A derivative, hinge substitution M21S]",105,110,−,+,+
"NisinA K22A (ITSISLCTPGCKTGALMGCNMATATCHCSIHVSK; not fully specified; also: lantibiotic: lanthionine rings and dehydro residues not placed; UniProt P13068 24-57, looked up, variant K22A) [nisin A derivative, hinge substitution K22A]",126,137,−,+,−
"NisinA M21I (ITSISLCTPGCKTGALMGCNIKTATCHCSIHVSK; not fully specified; also: lantibiotic: lanthionine rings and dehydro residues not placed; UniProt P13068 24-57, looked up, variant M21I) [nisin A derivative, hinge substitution M21I]",107,92,−,+,−
"NisinA M21G (ITSISLCTPGCKTGALMGCNGKTATCHCSIHVSK; not fully specified; also: lantibiotic: lanthionine rings and dehydro residues not placed; UniProt P13068 24-57, looked up, variant M21G) [nisin A derivative, hinge substitution M21G]",125,115,−,+,−
